For the experiment, the system named is IMR90 fibroblasts, CD4+ and CD8+ T cells, CD34+ cells. The experiment can be described thus: Senescence and heterochromatic hypomethylation with cell division/aging, rescue with Vitamin C. It is filed as cell-based, human. The note with it: activator of TET proteins. The text has this:
Example 9: The inventors investigated heterochromatin dysfunction as a function of both cellular age and number of cell divisions, using multiple cellular systems: IMR90 fibroblasts, freshly isolated CD4+ and CD8+ T cells from young and old human donors, and commercially available CD34^+ cells (enriched for hematopoietic precursor cells) from human newborns (cord blood) and older adults.
Tet1/2/3 triple-foxed (Tet1/2/3 Tfl) RosaYFP^LSL or RosaYFP^LSL mice were used, left […] with tamoxifen; (ii) DNMT3a (or multiple Dnmt) foxed mice, also bearing the RosaYFP^LSL reporter and left […] with tamoxifen. Mouse fibroblasts have a longer passage time to senescence, so IMR90 human fibroblasts in which partial TET or DNMT loss-of-function was induced by genome editing were also used.

One compound from patent US20230042198A1, “Methods and Compositions for Modulationg Heterochromatin Dysfunction, Genomic Instability, and Associate Conditions” (La Jolla Institute for Immunology, priority 2019, published 2023) can be followed below.

For the compound `O=C1O[C@H]([C@@H](O)CO)C(O)=C1O` [Vitamin C], the “hypomethylation observed with cell division and/or aging” value is on record as “can be rescued” and the time to senescence result is reported as “can be delayed”.
